# Read-outs that look alike come from different tables or passages of the source. Peptide text beside a SMILES is read from it.
# Experiments:
# physchem = assay type: physicochemical; details: buffer, pH 3
# [1] = Sensory evaluation of sweetness (sweetening potency) relative to sucrose; details: for Sweetness (sweetening potency): sensory evaluation; for sweetness potency: values compared to sweetening potency of a 4% aqueous solution of sucrose
# Text: For example, the sweetness of N-[N-[3-(3-hydroxy-4-methoxyphenyl)-3-methylbutyl]-L-α-aspartyl]-L-phenylalanine 1-methyl ester was approximately 70000 times that of sugar, the sweetness of N-[N-[3-(3-methyl-4 hydroxyphenyl)-3-methylbutyl]-L-α-aspartyl]-L-phenylalanine 1-methyl ester was approximately 70000 times that of sugar, the sweetness of N-[N-[3-(3-hydroxy-4-methylphenyl)-3-methylbutyl]-L-α- aspartyl]-L-phenylalanine 1-methyl ester was approximately 60000 times that of sugar, and the sweetness of N-[N-((RS)-3-(3 hydroxy-4-methoxyphenyl) butyl]-L-α-aspartyl]-L-phenylalanine 1-methyl ester was approximately 50000 times that of sugar. […] Sensory evaluations can be performed as described in, for example, B. T. Carr, S. D. Pecore, K. M. Gibes and G. E. Dubois, “Sensory Methods for Sweetner Evaluation” in Flavor Measurement, edited by C. T. Ho and C. H. Manley, Marcel Decker, Inc. (1992).
# [2] = reported in WO 94/11391, compared to 2%, 5% and 10% sucrose solutions, cited from earlier work
Structure (SMILES),Sweetness (sweetening potency) [1],sweetness potency [1],also measured
"COC(=O)[C@H](Cc1ccccc1)NC(=O)[C@@H](N)CC(=O)O [aspartame, reference compound] (H-Asp-Phe-OMe)",–,–,half-life (physchem): 23.5 h
"COC(=O)[C@H](Cc1ccccc1)NC(=O)[C@H](CC(=O)O)NCCC(C)c1ccc(OC)c(O)c1 (mixture of isomers) [Compound 4, N-[N-[(RS)-3-(3-hydroxy-4-methoxyphenyl)butyl]-L-α-aspartyl]-L-phenylalanine 1-methyl ester]",approximately 50000 times the sweetness of sugar,50000,Sweetness (sweetening potency) ([1]; listed as Example 17): 50000 times the sweetness of sugar
"COC(=O)[C@H](Cc1ccccc1)NC(=O)[C@H](CC(=O)O)NCCC(C)(C)c1ccc(C)cc1O [Compound 15, N-[N-[3-(2-hydroxy-4-methylphenyl)-3-methylbutyl]-L-α-aspartyl]-L-phenylalanine 1-methyl ester]",25000 times the sweetness of sugar,25000,–
COC(=O)[C@H](CC1CCCCC1)NC(=O)[C@H](CC(=O)O)NCCC(C)c1ccc(OC)c(O)c1 (mixture of isomers) [Compound 6],40000 times the sweetness of sugar,40000,–
COC(=O)[C@H](Cc1ccccc1)NC(=O)[C@H](CC(=O)O)NCCCc1ccc(O)c(OC)c1 [N-[N-(3-(3-methoxy-4-hydroxyphenylpropyl)-L-α-aspartyl]-L-phenylalanine 1-methyl ester],–,–,sweetening potency [2]: 2500 times that of sucrose
COC(=O)[C@H](Cc1ccccc1)NC(=O)[C@H](CC(=O)O)NCCC(C)(C)c1ccc(OC)c(O)c1,approximately 70000 times the sweetness of sugar,–,–
"COC(=O)[C@H](Cc1ccccc1)NC(=O)[C@H](CC(=O)O)NCCC(C)c1ccc(O)c(OC)c1 (mixture of isomers) [Compound 3, N-[N-[(RS)-3-(3-methoxy-4-hydroxyphenyl)butyl]-L-α-aspartyl]-L-phenylalanine 1-methyl ester]",30000 times the sweetness of sugar,30000,–
"COC(=O)[C@H](Cc1ccccc1)NC(=O)[C@H](CC(=O)O)NCCC(C)(C)c1ccc2c(c1)OCO2 [Compound 16, N-[N-[3-(3,4-methylenedioxyphenyl)-3-methylbutyl]-L-α-aspartyl]-L-phenylalanine-1-methyl ester]",30000 times the sweetness of sugar,30000,–
"COC(=O)[C@H](Cc1ccc(O)cc1)NC(=O)[C@H](CC(=O)O)NCCC(C)(C)C [N-[N-(3,3-dimethylbutyl)-L-α-aspartyl]-L-tyrosine 1-methyl ester]",–,–,"sweetening potency [2]: 4,000 times that of sucrose; sweetening potency ([2]; listed as N-[N-(3,3-dimethylbutyl)-L-α-aspartyl]-L-tyrosine 1-methylester): 4000 times that of sucrose"
"COC(=O)[C@H](Cc1ccccc1)NC(=O)[C@H](CC(=O)O)NCCC(C)(C)c1ccc(O)c(C)c1 [Compound 18, N-[N-[3-(3-methyl-4-hydroxyphenyl)-3-methylbutyl)-L-α-aspartyl]-L-phenylalanine 1-methyl ester]",approximately 70000 times the sweetness of sugar,70000,Sweetness (sweetening potency) ([1]; listed as Example 11): 70000 times the sweetness of sugar
"COC(=O)[C@H](Cc1ccccc1)NC(=O)[C@H](CC(=O)O)NCCC(C)c1cccc(O)c1 (mixture of isomers) [Compound 2, N-[N-[(RS)-3-(3-hydroxyphenyl)butyl]-L-α-aspartyl]-L-phenylalanine 1 methyl ester]",12000 times the sweetness of sugar,12000,–
"COC(=O)[C@H](Cc1ccccc1)NC(=O)[C@H](CC(=O)O)NCCC(C)(C)c1ccc(O)c(O)c1 [Compound 23, N-[N-[3-(3,4-dihydroxyphenyl)-3-mehylbutyl]-L-α-aspartyl]-L-phenylalanine 1-methyl ester]",50000 times the sweetness of sugar,50000,–
"COC(=O)[C@H](Cc1ccc(O)cc1)NC(=O)[C@H](CC(=O)O)NCCC(C)c1ccc(O)c(OC)c1 (mixture of isomers) [Compound 5, N-[N-[(RS)-3-(3-methoxy-4-hydroxyphenyl)butyl]-L-α-aspartyl]-L-tyrosine 1-methyl ester]",25000 times the sweetness of sugar,25000,–
"COC(=O)[C@H](Cc1ccccc1)NC(=O)[C@H](CC(=O)O)NCCC(C)(C)c1ccc(OC)cc1 [Compound 7, N-[N-[3-(4-methoxyphenyl)-3-methylbutyl]-L-α-aspartyl)-L-phenylalanine 1-methyl ester]",25000 times the sweetness of sugar,25000,–
"COC(=O)[C@H](Cc1ccccc1)NC(=O)[C@H](CC(=O)O)NCCC(C)(C)c1ccccc1O [Compound 13, N-[N-[3-(2-hydroxyphenyl)-3-methylbutyl]-L-α-aspartyl]-L-phenylalanine 1-methyl ester]",8000 times the sweetness of sugar,8000,–
"COC(=O)[C@H](Cc1ccccc1)NC(=O)[C@H](CC(=O)O)NCCC1(c2ccc(O)c(OC)c2)CCCC1 [Compound 20, N-[N-[2-[1-(3-methoxy-4-hydroxyphenyl)cyclopentyl]ethyl]-L-α-aspartyl]-L-phenylalanine 1-methyl ester]",30000 times the sweetness of sugar,30000,–
COC(=O)[C@](C)(Cc1ccccc1)NC(=O)[C@H](CC(=O)O)NCCC(C)(C)c1ccc(OC)c(O)c1 [Compound 22],40000 times the sweetness of sugar,40000,–
"COC(=O)[C@H](Cc1ccccc1)NC(=O)[C@H](CC(=O)O)NCCC(C)(C)c1ccc(C)c(O)c1 [Compound 19, N-[N-[3-(3-hydroxy-4-methylphenyl)-3-methylbutyl]-L-α-aspartyl]-L-phenylalanine 1-methyl ester]",approximately 60000 times the sweetness of sugar,60000,Sweetness (sweetening potency) ([1]; listed as Example 22): 60000 times the sweetness of sugar
COC(=O)[C@H](Cc1ccccc1)NC(=O)[C@H](CC(=O)O)NCCCc1ccccc1 [N-[N-(3-phenylpropyl)-L-(α-aspartyl]-L-phenylalanine 1-methyl ester],–,–,sweetening potency [2]: 1500 times that of sucrose
COC(=O)[C@H](Cc1ccccc1)NC(=O)[C@H](CC(=O)O)NC(C)CCc1ccc(O)c(OC)c1 (mixture of isomers) [N-[N-[3-(3-methoxy-4-hydroxyphenyl)(RS)-1-methylpropyl]-L-α-aspartyl]-L-phenylalanine 1-methylester],–,–,sweetening potency [2]: 500 times that of sucrose
"COC(=O)[C@H](Cc1ccccc1)NC(=O)[C@H](CC(=O)O)NCCC(C)c1ccc(O)c(C)c1 (mixture of isomers) [Compound 11, N-[N-[(RS)-3-(3-methyl-4-hydroxyphenyl)butyl]-L-α-aspartyl]-L-phenylalanine 1-methyl ester]",50000 times the sweetness of sugar,50000,–
"COC(=O)[C@H](Cc1ccccc1)NC(=O)[C@H](CC(=O)O)NCCC(C)(C)c1ccc(OC)c(C)c1 [Compound 17, N-[N-[3-(3-methyl-4-methoxyphenyl)-3-methylbutyl]-L-α-aspartyl]-L-phenylalanine 1-methyl ester]",30000 times the sweetness of sugar,30000,–
"COC(=O)[C@H](Cc1ccccc1)NC(=O)[C@H](CC(=O)O)NCCC(C)(C)c1ccc(OC)cc1O [Compound 14, N-[N-[3-(2-hydroxy-4-methoxyphenyl)-3-methylbutyl]-L-α-aspartyl]-L-phenylalanine 1-methyl ester]",20000 times the sweetness of sugar,20000,–
"CCOC(=O)[C@H](Cc1ccccc1)NC(=O)[C@H](CC(=O)O)NCCC(C)(C)c1ccc(OC)c(O)c1 [Compound 21, N-[N-[3-(3-hydroxy-4-methoxyphenyl)-3-methylbutyl]-L-α-aspartyl]-L-phenylalanine 1-ethyl ester]",15000 times the sweetness of sugar,15000,–
"COC(=O)[C@H](Cc1ccccc1)NC(=O)[C@H](CC(=O)O)NCCC(C)(C)C [N-[N-(3,3-dimethylbutyl)-L-α-aspartyl]-L-phenylalanine 1-methyl ester, reference compound]",–,–,"sweetening potency [2]: 10,000 times that of sucrose; sweetening potency ([2]; listed as N-[N-(3,3-dimethylbutyl)-L-α-aspartyl]-L-phenylalanine 1-methylester): 10000 times that of sucrose"
"COC(=O)[C@H](Cc1ccccc1)NC(=O)[C@H](CC(=O)O)NCCC(C)c1ccc(OC)cc1 (mixture of isomers) [Compound 1, N-[N-[(RS)-3-(4-methoxyphenyl)butyl]-L-α-aspartyl]-L-phenylalanine 1-methyl ester]",16000 times the sweetness of sugar,16000,–
"COC(=O)[C@H](Cc1ccccc1)NC(=O)[C@H](CC(=O)O)NCC(C)Cc1ccc(OC)c(O)c1 (mixture of isomers) [Compound 12, N-[N-[3-(3-hydroxy-4-methoxyphenyl)-(RS)-2-methylpropyl)-L-α-aspartyl)-L-phenylalanine 1-methyl ester]",5000 times the sweetness of sugar,5000,–

# Source: US7238830B2, “N-alkylaspartyl dipeptide ester compounds” (Ajinomoto Co., Inc., priority 1998, dated 2007)
